According to patent US6492124B1, “Trance activated signal transduction pathways in osteoclasts” (The Rockefeller University, priority 1999, dated 2002):

Experiments:
mature osteoclasts = assay: Osteoclast survival assay (TRAP solution assay); assay type: cell-based, mouse; conditions: 24 hours; TRANCE 5 μg/ml or CSF-1 10 ng/ml
Method: TRAP solution assays were performed and percent survival calculated. The experiment was performed in triplicate and the mean values with positive standard deviations are shown. […] (E) Mature osteoclasts were washed extensively and then cultured for an additional 24 hr in media without (−) or with TRANCE (5 μg/ml; +) in the absence or presence of increasing doses (200 nM and 800 nM) of LY294002. TRAP solution assays were performed and percent survival was as described in Experimental Procedures. The experiment was performed in triplicate and the mean values with positive standard deviations are shown.
Osteoclast survival assays. In vitro differentiated mature osteoclasts were washed 3 times in media then further cultured for 24 hr in media alone (control) or in media with TRANCE (5 μg/ml) or CSF-1 (10 ng/ml) in the presence or absence of LY294002 as indicated.
Specific cell survival (%)=(A405, 24 hr−A405. background)*100/(A405, 0 hr−A405, background)

p44/42 ERK = p44/42 ERK phosphorylation in osteoclasts and dendritic cells (Western blot); assay type: cell-based, mouse; conditions: after 20 min of TRANCE stimulation
Method: FIG. 1. TRANCE activates p44/42 ERK, NF-κB and PKB in osteoclasts and dendritic cells. (A) Mature bone marrow-derived osteoclasts were stimulated for the indicated times with recombinant hCD8-TRANCE (TRANCE; 1 μg/ml). Levels of phosphorylated forms of p44/p42 ERK (p44 ERK^P and p42 ERK^P), IκBα (IκB-α^P) and PKB (PKB^P) in whole cell extracts were determined using phospho-peptide-specific antibodies as indicated in the figure. The membranes were stripped and incubated with antibodies against the p44/p42 ERK, IκB-α, and PKB as indicated to confirm that similar amounts of whole cell extracts were analyzed. Note the decrease of IκB-α after 10 min of treatment due to its degradation. (B) as in (A) except the use of mature bone marrow-derived dendritic cells instead of osteoclasts.
Cell stimulation, cell transfection and in vitro assays. In vitro differentiated mature dendritic cells, macrophages and osteoclasts were washed to remove exogenous growth factors, cultured in media with low serum (0.5% FCS, 6 hours), then stimulated by adding various cytokines in the presence or absence of inhibitors for various times as indicated. After stimulation, the cells were washed in ice-cold PBS, and subjected to Western blot analysis or immunoprecipitation as described below. […]

JNK = JNK activation measured by its phosphorylation in osteoclasts and dendritic cells; assay type: cell-based, mouse; conditions: TRANCE, data not shown
Method: Cell stimulation, cell transfection and in vitro assays. In vitro differentiated mature dendritic cells, macrophages and osteoclasts were washed to remove exogenous growth factors, cultured in media with low serum (0.5% FCS, 6 hours), then stimulated by adding various cytokines in the presence or absence of inhibitors for various times as indicated. After stimulation, the cells were washed in ice-cold PBS, and subjected to Western blot analysis or immunoprecipitation as described below.
For Western blotting, whole-cell extracts (20 μg of total protein), immunoprecipitates or kinase reactions were resolved on SDS-PAGE, electro-blotted to PVDF membranes (Immobilon-P, Millipore) according to standard methods (Maniatis, et al., Molecular Cloning: A Laboratory Manual (Cold Spring Harbor Laboratory, New York) 1989), probed with antibodies according to the manufacturer's protocol, and visualized using an immunodetection system. Stripping was performed by incubating the blots in stripping buffer (62.5 mM Tris pH 6.8, 2% SDS, 100 mM β-mercaptoethanol) for 30 min at 55° C.

[1] = biological target: T1, TRANCE-R signaling complex (Mus musculus, UniProt O35305); assay: TRANCE-R immunoprecipitation from dendritic cells: co-precipitated TRAF6/c-Src and SAM68 kinase assay; assay type: cell-based
T1 construct: the endogenous TRANCE-R was immunoprecipitated from the extracts (2 mg of total protein); endogenous in cells; host or cells: mature bone marrow-derived dendritic cells of C57BL/6 mice
Method: FIG. 5. Ligand dependant recruitment of endogenous TRAF6 and c-Src proteins to the TRANCE-R signaling complex. (A) Dendritic cells were stimulated with TRANCE (1 μg/ml) for the indicated times, lysed, and c-Src was immunoprecipitated from the extracts (400 μg total protein), using an anti-c-Src-specific monoclonal antibody (327). PTK activity of the c-Src immunoprecipitates was measured by in vitro kinase assays using SAM68 as a PTK substrate. The degree of SAM68 phosphorylation (SAM68^P) was determined by Western blot analysis using a phospho-tyrosine specific antibody (4G10) followed by densitometry. (B) Dendritic cells (3×10^7) were treated with TRANCE (1 μg/ml) for 5 minutes or left untreated (0 minutes). […] The degree of SAM68 phosphorylation (SAM68^P) was determined as in (A). The presence of endogenous TRAF6 or c-Src in the remaining α-TRANCE-R immunoprecipitates (IP) were analyzed by Western blotting using TRAF6 (H-274) and c-Src specific antibodies (N16), respectively, as indicated. […]
For the in vitro kinase-assays in FIGS. 3A, 4D, and 5B the beads were washed twice with extraction buffer and three times with kinase buffer (30 mM HEPES.NaOH (pH 7.4), 20 mM MgCl2, 2 mM MnCl2, 1 mM dithiothreitol). […] Phosphorylation of SAM68 was detected by autoradiography or by probing Western blots with 4G10. […]

TNF-related activation-induced cytokine [TRANCE]
cytokine-promoted survival in c-Src−/− osteoclasts compared to wild-type (mature osteoclasts): reduced
ERK phosphorylation (p44/42 ERK): transiently induced
JNK activation as measured by its phosphorylation (JNK): not detected
TRAF6 and c-Src in the TRANCE-R complex ([1]; TRANCE 1 μg/ml 5 minutes vs untreated): readily detected
PTK activity of the receptor complex towards SAM68 ([1]; TRANCE 1 μg/ml 5 minutes, in vitro kinase assay): acquired PTK activity
